Measurements published in patent US6346529B1, “Antiviral therapy using thiazine dyes” (Oklahoma Medical Research Foundation, priority 1988, dated 2002).

Tests used:
[1] = PBM cell proliferation (cytotoxicity) assay; format: cell-based; settings: human
Procedure: PBM and CEM Cells Proliferation Assay: The drugs were evaluated for their potential toxic effects on uninfected PHA-stimulated human PBM cells and also in CEM cells. The cells were cultured with and without drug for 6 days at which time aliquots were counted for cell viability as described above. Median-Effect Method: EC50 and IC50 values were obtained by analysis of the data using the median-effect equation (Chou, T., et al., “Quantitative Analysis of Dose-Effect Relationships: The Combined Effects of Multiple Drugs or Enzyme Inhibitors,” Adv. Enz. Regul. 22, 27-55 (1984).

[2] = system: RNA virus R17; assay: Inactivation of RNA virus R17, plaque titer on E. coli lawn; format: cell-based, R17 phage; settings: for PFU: MB 0.05 uM
Procedure: Add 20 μl φ (R17 phage) stock to 2.0 ml dilution buffer and dispense 0.3 ml into each of tubes A-F. Next add methylene blue to give concentrations shown in Table 2 below. Pipet 270 μl of samples to be light treated into the #1 wells of a 96 well microtiter plate, corresponding to its letter label A-H. The samples in the microtiter plate were exposed to light through water (¼ cm) deep in a petri dish for 5 minutes. 270 μl of each sample not to be light treated was then added to wells in the plate.
R17 virus samples were also tested to determine the time of exposure of light required to inactivate the virus. […] The length of exposure was varied as follows:
Add 0.3 ml to well H2, treat with light 0-5 min. Add 0.3 ml to well G2, treat with light 5 min-7.5 min. Add 0.3 ml to well F2, treat with light 7.5 min-9.0 min. Add 0.3 ml to well E2, treat with light 9.0 min-9.5 min. Add 0.3 ml to well D2, treat with light 9.5 min-9.9 min. Add 0.3 ml to well C2, treat with light 9.9 min-10.0 min. Add 0.3 ml to well B, no light. Add 0.3 ml to well A, no light.

[3] = sheep, cited from earlier work
[4] = cited from earlier work
[5] = molecular target: T1, HIV-1 reverse transcriptase (RT) (Human immunodeficiency virus type 1 group M subtype B, UniProt P03367); assay: HIV-1 reverse transcriptase enzyme assay; format: biochemical
T1 construct: HIV reverse transcriptase (RT); endogenous in cells; host or cells: HIV-1-infected PHA-stimulated human PBM cells
Text: Enzyme Assays: The preparation of the enzyme and the assay conditions used, were recently described by Schinazi, et al., Antimicrob. Agents Chemother. 33, 115-117 (1989). HIV-1 RT and cellular DNA polymerase alpha were isolated from infected and uninfected PHA-stimulated human PBM cells according to traditional methods (Eriksson, B., et al., Antimicrob. Agents Chemother. 31, 600-604, (1987); Furman, et al., Proc. Natl. Acad. Sci. USA 83, 8333-8337, (1986); Abrell, et al., J. Virol. 12, 431-439, (1973).
Assays. Reaction mixtures (100 μl) contained:
The reactions were started by the addition of 10 μl of purified enzyme, incubated at 37° C. for the indicated periods of time and processed as described in Eriksson, et al., Antimicrob. Agents Chemother. 31, 600-604 (1987).
Median-Effect Method: EC50 and IC50 values were obtained by analysis of the data using the median-effect equation (Chou, T., et al., “Quantitative Analysis of Dose-Effect Relationships: The Combined Effects of Multiple Drugs or Enzyme Inhibitors,” Adv. Enz. Regul. 22, 27-55 (1984).
The effect of methylene blue on two DNA polymerizing enzymes, HIV reverse transcriptase (RT) and calf thymus DNA polymerase alpha (CT α pol), was also studied.

For `Nc1nc2c(ncn2COCCO)c(=O)[nH]1` [ACV, Acyclovir], the IC50 at 6 days [1] was over 100 µM.
In the case of `CN(C)c1ccc2nc3ccc(N(C)C)cc3[s+]c2c1.[Cl-]` [MB, 3,7-Bis(dimethylamino)phenothiazin-5-ium chloride], the “light exposure inactivating infectivity 50%” value ([2]; 0.05 μM methylene blue) is reported as 45 s, the pfu/ml ([2]; MB 0.02 uM, light 5′ yes) is reported as 5.04 × 10^10 pfu/ml and the pfu/ml ([2]; MB 0.04 uM, light 5′ yes) is reported as 1.11 × 10^10 pfu/ml. For the same molecule, the “t½ of R17 inactivation” value ([2]; MB 0.05 uM and light) was 48 to 60 s, the PFU ([2]; light 0.1 min) was 3.3 × 10^9/ml PFU/ml and the PFU ([2]; light 0.5 min) was 5.0 × 10^9/ml PFU/ml. The PFU ([2]; light 2.5 min) was 9.1 × 10^7/ml PFU/ml, the PFU ([2]; light 5.0 min) was 6.93 × 10^7/ml PFU/ml and the PFU ([2]; light exposure none) was 2.76 × 10^9/ml PFU/ml. For the same molecule, the pfu/ml ([2]; MB 0.2 uM, light 5′ yes) was 3.25 × 10^5 pfu/ml, the pfu/ml ([2]; MB 2.0 uM, light 5′ yes) was 3.00 × 10^3 pfu/ml and the pfu/ml ([2]; MB 2.0 uM, light no) was 4.80 × 10^10 pfu/ml. The pfu/ml ([2]; MB 20.0 uM, light 5′ yes) was 4.20 × 10^4 pfu/ml, the pfu/ml ([2]; MB 20.0 uM, light no) was 3.00 × 10^9 pfu/ml and the methemoglobin production ([3]; doses as high as 50 mg/kg) was “minimal methemoglobin production”. For the same molecule, the hematologic changes ([3]; up to four weeks after a total dose of 30 mg/kg) was “no hematologic changes”, the “overall elimination rate constant” value [3] was 0.0076 ± 0.016 min⁻¹ and the “absorption from the GI tract” value ([4]; American Hospital Formulary Service) was “absorbed well from the GI tract”. For the same molecule, the “excreted in urine and via the bile” value ([4]; mostly as leukomethylene blue) was “about 75%”, the IC50 ([5]; Dark) was 10 µM and the IC50 ([5]; Light) was 9.2 µM.
